From the supplement of paper PMC10307832

Assays:
Test in all cases: relative viability (nuclei count vs DMSO), 5 days (fraction); higher = more cells survive
PC-14 = tested on: PC-14
Summary of the method: (§1)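 Medians of duplicate plates are given as relative viability. That measure is the nuclei count in treated wells divided by the count in vehicle wells. Counts were taken on 4× images of lung cancer cell lines in 1536-well plates, 5 days after pin-tool dosing the day after seeding with one drug alone or a fixed anchor-drug dose plus five library-drug doses (not always all listed) in √10 steps.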

LCLC-103H = tested on: LCLC-103H
Summary of the method: as §1

NCI-H322M = tested on: NCI-H322M
Summary of the method: as §1

NCI-H2126 = tested on: NCI-H2126
Summary of the method: as §1

LXF-289 = tested on: LXF-289
Summary of the method: as §1

NCI-H1666 = tested on: NCI-H1666
Summary of the method: as §1

LU99A = tested on: LU99A
Summary of the method: as §1

EKVX = tested on: EKVX
Summary of the method: as §1

NCI-H23 = tested on: NCI-H23
Summary of the method: as §1

LK-2 = tested on: LK-2
Summary of the method: as §1

NCI-H2342 = tested on: NCI-H2342
Summary of the method: as §1

SW 900 = tested on: SW 900
Summary of the method: as §1

EPLC-272H = tested on: EPLC-272H
Summary of the method: as §1

SK-LU-1 = tested on: SK-LU-1
Summary of the method: as §1

NCI-H2405 = tested on: NCI-H2405
Summary of the method: as §1

NCI-H1975 = tested on: NCI-H1975
Summary of the method: as §1

EMC-BAC-2 = tested on: EMC-BAC-2
Summary of the method: as §1

SW 1573 = tested on: SW 1573
Summary of the method: as §1

ChaGo-K-1 = tested on: ChaGo-K-1
Summary of the method: as §1

RERF-LC-KJ = tested on: RERF-LC-KJ
Summary of the method: as §1

HCC-827 = tested on: HCC-827
Summary of the method: as §1

HCC-78 = tested on: HCC-78
Summary of the method: as §1

SMILES: O=c1cc(-c2cccc3c2Sc2ccccc2S3)oc(N2CCOCC2)c1 + CC(=O)Nc1cccc(-n2c(=O)n(C3CC3)c(=O)c3c(Nc4ccc(I)cc4F)n(C)c(=O)c(C)c32)c1 [Trametinib] (partner 0.02 µM)
- relative viability (PC-14; first compound 0.08 µM): 0.748
- relative viability (PC-14; first compound 0.253 µM): 0.828
- relative viability (PC-14; first compound 0.8 µM): 0.728
- relative viability (PC-14; first compound 2.53 µM): 0.827
- relative viability (PC-14; first compound 8 µM): 0.718
- relative viability (LCLC-103H; first compound 0.08 µM): 0.698
- relative viability (LCLC-103H; first compound 0.253 µM): 0.713
- relative viability (LCLC-103H; first compound 0.8 µM): 0.631
- relative viability (LCLC-103H; first compound 2.53 µM): 0.662
- relative viability (LCLC-103H; first compound 8 µM): 0.623
- relative viability (NCI-H322M; first compound 0.08 µM): 0.52
- relative viability (NCI-H322M; first compound 0.253 µM): 0.558
- relative viability (NCI-H322M; first compound 0.8 µM): 0.591
- relative viability (NCI-H322M; first compound 2.53 µM): 0.443
- relative viability (NCI-H322M; first compound 8 µM): 0.529
- relative viability (NCI-H2126; first compound 0.08 µM): 0.583
- relative viability (NCI-H2126; first compound 0.253 µM): 0.583
- relative viability (NCI-H2126; first compound 0.8 µM): 0.526
- relative viability (NCI-H2126; first compound 2.53 µM): 0.508
- relative viability (NCI-H2126; first compound 8 µM): 0.474
- relative viability (LXF-289; first compound 0.08 µM): 0.657
- relative viability (LXF-289; first compound 0.253 µM): 0.716
- relative viability (LXF-289; first compound 0.8 µM): 0.73
- relative viability (LXF-289; first compound 2.53 µM): 0.651
- relative viability (LXF-289; first compound 8 µM): 0.692
- relative viability (NCI-H1666; first compound 0.08 µM): 0.828
- relative viability (NCI-H1666; first compound 0.253 µM): 0.916
- relative viability (NCI-H1666; first compound 0.8 µM): 0.864
- relative viability (NCI-H1666; first compound 2.53 µM): 0.89
- relative viability (NCI-H1666; first compound 8 µM): 0.793
- relative viability (LU99A; first compound 0.08 µM): 0.531
- relative viability (LU99A; first compound 0.253 µM): 0.624
- relative viability (LU99A; first compound 0.8 µM): 0.553
- relative viability (LU99A; first compound 2.53 µM): 0.538
- relative viability (LU99A; first compound 8 µM): 0.52
- relative viability (EKVX; first compound 0.08 µM): 0.554
- relative viability (EKVX; first compound 0.253 µM): 0.332
- relative viability (EKVX; first compound 0.8 µM): 0.296
- relative viability (EKVX; first compound 2.53 µM): 0.332
- relative viability (EKVX; first compound 8 µM): 0.336
- relative viability (NCI-H23; first compound 0.08 µM): 0.334
- relative viability (NCI-H23; first compound 0.253 µM): 0.418
- relative viability (NCI-H23; first compound 0.8 µM): 0.349
- relative viability (NCI-H23; first compound 2.53 µM): 0.313
- relative viability (NCI-H23; first compound 8 µM): 0.317
- relative viability (LK-2; first compound 0.08 µM): 0.874
- relative viability (LK-2; first compound 0.253 µM): 0.852
- relative viability (LK-2; first compound 0.8 µM): 0.755
- relative viability (LK-2; first compound 2.53 µM): 0.712
- relative viability (LK-2; first compound 8 µM): 1.03
- relative viability (NCI-H2342; first compound 0.08 µM): 0.744
- relative viability (NCI-H2342; first compound 0.253 µM): 0.897
- relative viability (NCI-H2342; first compound 0.8 µM): 0.736
- relative viability (NCI-H2342; first compound 2.53 µM): 0.716
- relative viability (NCI-H2342; first compound 8 µM): 0.935
- relative viability (SW 900; first compound 0.253 µM): 0.93
- relative viability (SW 900; first compound 0.8 µM): 0.777
- relative viability (SW 900; first compound 2.53 µM): 0.814
- relative viability (SW 900; first compound 8 µM): 0.816
- relative viability (EPLC-272H; first compound 0.08 µM): 0.254
- relative viability (EPLC-272H; first compound 0.253 µM): 0.293
- relative viability (EPLC-272H; first compound 0.8 µM): 0.238
- relative viability (EPLC-272H; first compound 2.53 µM): 0.28
- relative viability (EPLC-272H; first compound 8 µM): 0.28
- relative viability (SK-LU-1; first compound 0.08 µM): 0.422
- relative viability (SK-LU-1; first compound 0.253 µM): 0.512
- relative viability (SK-LU-1; first compound 0.8 µM): 0.582
- relative viability (SK-LU-1; first compound 2.53 µM): 0.414
- relative viability (SK-LU-1; first compound 8 µM): 0.415
- relative viability (NCI-H2405; first compound 0.08 µM): 0.589
- relative viability (NCI-H2405; first compound 0.253 µM): 0.673
- relative viability (NCI-H2405; first compound 0.8 µM): 0.599
- relative viability (NCI-H2405; first compound 2.53 µM): 0.534
- relative viability (NCI-H2405; first compound 8 µM): 0.577
- relative viability (NCI-H1975; first compound 0.08 µM): 0.323
- relative viability (NCI-H1975; first compound 0.253 µM): 0.295
- relative viability (NCI-H1975; first compound 0.8 µM): 0.327
- relative viability (NCI-H1975; first compound 2.53 µM): 0.347
- relative viability (NCI-H1975; first compound 8 µM): 0.39
- relative viability (EMC-BAC-2; first compound 0.08 µM): 0.804
- relative viability (EMC-BAC-2; first compound 0.253 µM): 1.04
- relative viability (EMC-BAC-2; first compound 0.8 µM): 0.842
- relative viability (EMC-BAC-2; first compound 2.53 µM): 0.908
- relative viability (EMC-BAC-2; first compound 8 µM): 0.895
- relative viability (SW 1573; first compound 0.08 µM): 0.597
- relative viability (SW 1573; first compound 0.253 µM): 0.691
- relative viability (SW 1573; first compound 0.8 µM): 0.575
- relative viability (SW 1573; first compound 2.53 µM): 0.574
- relative viability (SW 1573; first compound 8 µM): 0.554
- relative viability (ChaGo-K-1; first compound 0.08 µM): 0.862
- relative viability (ChaGo-K-1; first compound 0.253 µM): 0.935
- relative viability (ChaGo-K-1; first compound 0.8 µM): 0.894
- relative viability (ChaGo-K-1; first compound 2.53 µM): 0.908
- relative viability (ChaGo-K-1; first compound 8 µM): 0.955
- relative viability (RERF-LC-KJ; first compound 0.08 µM): 0.79
- relative viability (RERF-LC-KJ; first compound 0.253 µM): 0.856
- relative viability (RERF-LC-KJ; first compound 0.8 µM): 0.89
- relative viability (RERF-LC-KJ; first compound 2.53 µM): 0.895
- relative viability (RERF-LC-KJ; first compound 8 µM): 0.784
- relative viability (HCC-827; first compound 0.08 µM): 0.508
- relative viability (HCC-827; first compound 0.253 µM): 0.563
- relative viability (HCC-827; first compound 0.8 µM): 0.537
- relative viability (HCC-827; first compound 2.53 µM): 0.427
- relative viability (HCC-827; first compound 8 µM): 0.544
- relative viability (HCC-78; first compound 0.08 µM): 0.712
- relative viability (HCC-78; first compound 0.253 µM): 1.03
- relative viability (HCC-78; first compound 0.8 µM): 0.677
- relative viability (HCC-78; first compound 2.53 µM): 0.786
- relative viability (HCC-78; first compound 8 µM): 0.544
